“And” between values parts separate entries of the source, which are not always exact repeats. Equal entries are not always repeated. Inconclusive results and toxic doses are left out.

This test deals with CD2F1 mice, L1210 leukemia ip, survival T/C. The experiment in a line: NCI In Vivo Anticancer Drug Screen. Data for tumor model L1210 Leukemia (intraperitoneal) in CD2F1 (CDF1) mice. Conditions: higher = longer survival. The gist of the method: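 Each value reflects a quotient of treated over vehicle control outcomes in mice with a transplanted tumor.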
Setting [1] is: endpoint: mean survival time, dose: 100.0 mg/kg/injection, schedule: Q01DX009 (ip), vehicle: saline with Tween-80.
[2] abbreviates: endpoint: mean survival time, dose: 400.0 mg/kg/injection, schedule: Q01DX009 (ip), vehicle: saline with Tween-80.
[3] abbreviates: endpoint: mean survival time, dose: 100.0 mg/kg/injection, schedule: Q04DX003 (ip), vehicle: saline with Tween-80.
Where [4] appears, read: endpoint: mean survival time, dose: 400.0 mg/kg/injection, schedule: Q04DX003 (ip), vehicle: saline with Tween-80.
The mark [5] stands for this setting: endpoint: mean survival time, dose: 200.0 mg/kg/injection, schedule: Q01DX009 (ip), vehicle: saline with Tween-80.
Where [6] appears, read: endpoint: mean survival time, dose: 100.0 mg/kg/injection, schedule: Q01DX001 (ip), vehicle: saline with Tween-80.
The mark [7] stands for this setting: endpoint: mean survival time, dose: 200.0 mg/kg/injection, schedule: Q01DX001 (ip), vehicle: saline with Tween-80.
Setting [8] is: endpoint: mean survival time, dose: 12.5 mg/kg/injection, schedule: Q01DX005 (ip), vehicle: distilled water + Tween-80.
Setting [9] is: endpoint: mean survival time, dose: 25.0 mg/kg/injection, schedule: Q01DX005 (ip), vehicle: distilled water + Tween-80.
[10] abbreviates: endpoint: mean survival time, dose: 50.0 mg/kg/injection, schedule: Q01DX005 (ip), vehicle: distilled water + Tween-80.
Setting [11] is: endpoint: mean survival time, dose: 100.0 mg/kg/injection, schedule: Q01DX005 (ip), vehicle: distilled water + Tween-80.
Where [12] appears, read: endpoint: mean survival time, dose: 200.0 mg/kg/injection, schedule: Q01DX005 (ip), vehicle: distilled water + Tween-80.
The mark [13] stands for this setting: endpoint: mean survival time, dose: 100.0 mg/kg/injection, schedule: Q01DX009 (ip), vehicle: saline.
The mark [14] stands for this setting: endpoint: mean survival time, dose: 200.0 mg/kg/injection, schedule: Q01DX009 (ip), vehicle: saline.
Where [15] appears, read: endpoint: mean survival time, dose: 200.0 mg/kg/injection, schedule: Q04DX003 (ip), vehicle: saline with Tween-80.

On to `CCCCCCCCCCCCN(CN1C(=O)c2ccccc2C1=O)CN1C(=O)c2ccccc2C1=O`, for which the T/C runs as follows: under setting [1], 92 % of control; under setting [2], 86 % of control.

`C[CH2][Sn]([F])([CH2]C)[CH2]C`: the T/C runs as follows: (endpoint: mean survival time, dose: 0.37 mg/kg/injection, schedule: Q01DX009 (ip), vehicle: saline with Tween-80) 98 % of control; (endpoint: mean survival time, dose: 0.75 mg/kg/injection, schedule: Q01DX009 (ip), vehicle: saline with Tween-80) 101 % of control; (endpoint: mean survival time, dose: 1.5 mg/kg/injection, schedule: Q01DX009 (ip), vehicle: saline with Tween-80) 104 % of control; (endpoint: mean survival time, dose: 3.0 mg/kg/injection, schedule: Q01DX009 (ip), vehicle: saline with Tween-80) 102 % of control; (endpoint: mean survival time, dose: 6.0 mg/kg/injection, schedule: Q01DX009 (ip), vehicle: saline with Tween-80) 98 % of control.

Consider `N#CC1=C(N)CCC1`, for which the T/C was 97 % of control (endpoint: mean survival time, dose: 6.25 mg/kg/injection, schedule: Q01DX009 (ip), vehicle: saline with Tween-80); 95 % of control (endpoint: mean survival time, dose: 12.5 mg/kg/injection, schedule: Q01DX009 (ip), vehicle: saline with Tween-80); 93 % of control (endpoint: mean survival time, dose: 25.0 mg/kg/injection, schedule: Q01DX009 (ip), vehicle: saline with Tween-80); 102 % of control under setting [3]; 97 % of control under setting [4].

Turning to `Cn1nnc2c(C(N)=O)ncn2c1=O`, the T/C (endpoint: median survival time, dose: 6.25 mg/kg/injection, schedule: Q01DX009 (ip), vehicle: saline with Tween-80) was 111 % of control; the T/C (endpoint: median survival time, dose: 12.5 mg/kg/injection, schedule: Q01DX009 (ip), vehicle: saline with Tween-80) is 122 % of control; the T/C (endpoint: median survival time, dose: 25.0 mg/kg/injection, schedule: Q01DX009 (ip), vehicle: saline with Tween-80) is 151 % of control; the T/C (endpoint: median survival time, dose: 50.0 mg/kg/injection, schedule: Q01DX009 (ip), vehicle: saline with Tween-80) was 159 % of control and 168 % of control; the T/C (endpoint: median survival time, dose: 100.0 mg/kg/injection, schedule: Q01DX009 (ip), vehicle: saline with Tween-80) is 182 % of control and 193 % of control; the T/C (endpoint: median survival time, dose: 200.0 mg/kg/injection, schedule: Q01DX009 (ip), vehicle: saline with Tween-80) is 121 % of control and 93 % of control.

On to `CCCCN1C(=O)C(=O)N(c2ccc(NC(C)=O)cc2)C1=O`, for which the T/C by setting is: (endpoint: mean survival time, dose: 50.0 mg/kg/injection, schedule: Q01DX009 (ip), vehicle: saline with Tween-80) 93 % of control; under setting [1], 89 % of control; under setting [5], 89 % of control.

Take `COc1ccc(NC(=O)NCCCl)cc1`: the T/C by setting is: under setting [6], 90 % of control; under setting [7], 94 % of control.

On to `Nc1ncnc2c1nc(N1CCCC1)n2C1OC(CO)C(O)C1O` (centres undefined), for which the T/C is 104 % of control and 93 % of control under setting [8]; 104 % of control and 98 % of control under setting [9]; 102 % of control and 100 % of control under setting [10]; 100 % of control and 90 % of control under setting [11]; 105 % of control and 97 % of control under setting [12].

For the molecule `COCCN=C(N)C(N)=NCCOC`, the T/C under setting [13] was 105 % of control; the T/C under setting [14] is 103 % of control; the T/C (endpoint: mean survival time, dose: 400.0 mg/kg/injection, schedule: Q01DX009 (ip), vehicle: saline) was 102 % of control.

`CCCCNc1nc2c(N)ncnc2n1C1OC(CO)C(O)C1O` (centres undefined): the T/C reads like this: under setting [8], 100 % of control and 97 % of control; under setting [9], 102 % of control and 100 % of control; under setting [10], 100 % of control; under setting [11], 100 % of control and 102 % of control; under setting [12], 100 % of control and 103 % of control.

As to `c1ccc(CNCCCNCc2ccccn2)nc1`, the T/C (endpoint: mean survival time, dose: 100.0 mg/kg/injection, schedule: Q01DX001 (ip), vehicle: saline) was 100 % of control and the T/C (endpoint: mean survival time, dose: 200.0 mg/kg/injection, schedule: Q01DX001 (ip), vehicle: saline) is 100 % of control.

On to `CCN1CCC2OCOC2C1` (centres undefined), for which the T/C reads like this: (endpoint: mean survival time, dose: 75.0 mg/kg/injection, schedule: Q01DX001 (ip), vehicle: saline) 102 % of control; (endpoint: mean survival time, dose: 150.0 mg/kg/injection, schedule: Q01DX001 (ip), vehicle: saline) 102 % of control.

Consider `CC(Cl)S(=O)(=O)c1ccccc1` (centres undefined), for which the T/C reads like this: (endpoint: mean survival time, dose: 100.0 mg/kg/injection, schedule: Q04DX002 (ip), vehicle: saline with Tween-80) 104 % of control; (endpoint: mean survival time, dose: 200.0 mg/kg/injection, schedule: Q04DX002 (ip), vehicle: saline with Tween-80) 96 % of control; (endpoint: mean survival time, dose: 400.0 mg/kg/injection, schedule: Q04DX002 (ip), vehicle: saline with Tween-80) 96 % of control.

With `CC1=C[S+](c2ccccc2)c2cccc3cc4ccccc4c1c23` (centres undefined), the T/C runs as follows: (endpoint: mean survival time, dose: 5.0 mg/kg/injection, schedule: Q01DX001 (ip), vehicle: saline with Tween-80) 111 % of control; (endpoint: mean survival time, dose: 10.0 mg/kg/injection, schedule: Q01DX001 (ip), vehicle: saline with Tween-80) 106 % of control; (endpoint: median survival time, dose: 0.06 mg/kg/injection, schedule: Q01DX009 (ip), vehicle: saline with Tween-80) 105 % of control; (endpoint: median survival time, dose: 0.12 mg/kg/injection, schedule: Q01DX009 (ip), vehicle: saline with Tween-80) 105 % of control; (endpoint: median survival time, dose: 0.25 mg/kg/injection, schedule: Q01DX009 (ip), vehicle: saline with Tween-80) 107 % of control; (endpoint: median survival time, dose: 0.5 mg/kg/injection, schedule: Q01DX009 (ip), vehicle: saline with Tween-80) 109 % of control. The T/C is 109 % of control (endpoint: median survival time, dose: 1.0 mg/kg/injection, schedule: Q01DX009 (ip), vehicle: saline with Tween-80) and 115 % of control (endpoint: median survival time, dose: 2.0 mg/kg/injection, schedule: Q01DX009 (ip), vehicle: saline with Tween-80).

As for `COCC/C(COC)=N\N=C(/CCOC)COC`, the T/C under setting [13] is 102 % of control; the T/C (endpoint: mean survival time, dose: 100.0 mg/kg/injection, schedule: Q04DX003 (ip), vehicle: Klucel (hydroxypropylcellulose) (HPC)) is 102 % of control; the T/C under setting [3] was 101 % of control; the T/C under setting [14] was 108 % of control; the T/C (endpoint: mean survival time, dose: 200.0 mg/kg/injection, schedule: Q04DX003 (ip), vehicle: Klucel (hydroxypropylcellulose) (HPC)) is 102 % of control; the T/C under setting [15] is 101 % of control. Besides, the T/C was 114 % of control (endpoint: mean survival time, dose: 400.0 mg/kg/injection, schedule: Q04DX003 (ip), vehicle: Klucel (hydroxypropylcellulose) (HPC)) and 106 % of control under setting [4].

Regarding `CCCCCCCC[n+]1ccc(C#N)cc1`, the T/C is 98 % of control (endpoint: mean survival time, dose: 18.8 mg/kg/injection, schedule: Q01DX009 (ip), vehicle: saline) and 93 % of control (endpoint: mean survival time, dose: 37.5 mg/kg/injection, schedule: Q01DX009 (ip), vehicle: saline).

With `COc1ncnc2c1c(C#N)cn2C1OC(CO)C(O)C1O` (centres undefined), the T/C (endpoint: mean survival time, dose: 6.25 mg/kg/injection, schedule: Q01DX009 (ip), vehicle: saline) is 117 % of control; the T/C (endpoint: mean survival time, dose: 25.0 mg/kg/injection, schedule: Q01DX009 (ip), vehicle: saline) was 109 % of control; the T/C (endpoint: mean survival time, dose: 50.0 mg/kg/injection, schedule: Q01DX009 (ip), vehicle: saline) was 124 % of control; the T/C under setting [13] was 91 % of control.

For the molecule `CCOc1ccc2c(c1)C(C)=CC(C)(C)N2`, the T/C by setting is: under setting [3], 95 % of control; under setting [15], 104 % of control; under setting [4], 91 % of control.

With `CC1CC(C)(C)N=C(C(Cc2ccccc2)Cc2ccccc2)O1` (centres undefined), the T/C under setting [6] is 97 % of control and the T/C under setting [7] was 95 % of control.

As for `OC1(Cc2ccccc2)CCCCCC1`, the T/C (endpoint: mean survival time, dose: 100.0 mg/kg/injection, schedule: Q04DX002 (ip), vehicle: other) was 95 % of control; the T/C (endpoint: mean survival time, dose: 200.0 mg/kg/injection, schedule: Q04DX002 (ip), vehicle: other) is 92 % of control; the T/C (endpoint: mean survival time, dose: 400.0 mg/kg/injection, schedule: Q04DX002 (ip), vehicle: other) was 92 % of control.

As to `CCOC(=O)Cc1cccc(C)n1`, the T/C by setting is: under setting [1], 104 % of control; (endpoint: mean survival time, dose: 100.0 mg/kg/injection, schedule: Q04DX003 (ip), vehicle: saline) 94 % of control; under setting [5], 98 % of control; (endpoint: mean survival time, dose: 200.0 mg/kg/injection, schedule: Q04DX003 (ip), vehicle: saline) 92 % of control; under setting [2], 100 % of control; (endpoint: mean survival time, dose: 400.0 mg/kg/injection, schedule: Q04DX003 (ip), vehicle: saline) 94 % of control.

Values taken from PubChem BioAssay AID256 (DTP/NCI, 2004).
